From patent US5977063A, “Alkylated hexapeptides” (Eli Lilly and Company, priority 1998, dated 1999)

Columns and labels:
Assay type in all cases: cell-based
[1] = tested on: Enterococcus faecium and faecalis (RESISTANT); details: geometric mean of 4-6 isolates
Experimental: (§1) The antibacterial efficacy of the present compounds is illustrated by Table II. The minimal inhibitory concentrations (MICs) were determined using a standard broth micro-dilution assay.

[2] = tested on: Enterococcus faecium and faecalis (SENSITIVE); test: MIC, standard broth micro-dilution assay, SENSITIVE enterococci; set-up: unit not given here; details: geometric mean of 4-6 isolates
Experimental: as §1

[3] = tested on: Staphylococcus aureus 446; test: MIC, standard broth micro-dilution assay, SA 446; set-up: unit not given here
Experimental: as §1

[4] = tested on: Staphylococcus aureus 489; test: MIC, standard broth micro-dilution assay, SA 489; set-up: unit not given here
Experimental: as §1

[5] = tested on: Staphylococcus aureus 447; test: MIC, standard broth micro-dilution assay, SA 447; set-up: unit not given here
Experimental: as §1

[6] = tested on: Staphylococcus haemolyticus 105; test: MIC, standard broth micro-dilution assay, SH 105; set-up: unit not given here
Experimental: as §1

[7] = tested on: Staphylococcus haemolyticus 415; test: MIC, standard broth micro-dilution assay, SH 415; set-up: unit not given here
Experimental: as §1

[8] = tested on: Staphylococcus epidermidis 270; test: MIC, standard broth micro-dilution assay, SE 270; set-up: unit not given here
Experimental: as §1

[9] = tested on: Streptococcus pyogenes C203; test: MIC, standard broth micro-dilution assay, SPY C203; set-up: unit not given here
Experimental: as §1

[10] = tested on: Streptococcus pneumoniae P1; test: MIC, standard broth micro-dilution assay, SPN P1; set-up: unit not given here
Experimental: as §1

| SMILES | Minimal Inhibitory Concentration (MIC) RESISTANT [1] | Minimal Inhibitory Concentration (MIC) SENSITIVE [2] | Minimal Inhibitory Concentration (MIC) SA 446 [3] | Minimal Inhibitory Concentration (MIC) SA 489 [4] | Minimal Inhibitory Concentration (MIC) SA 447 [5] | Minimal Inhibitory Concentration (MIC) SH 105 [6] | Minimal Inhibitory Concentration (MIC) SH 415 [7] | Minimal Inhibitory Concentration (MIC) SE 270 [8] | Minimal Inhibitory Concentration (MIC) SPY C203 [9] | Minimal Inhibitory Concentration (MIC) SPN P1 [10] |
| --- | --- | --- | --- | --- | --- | --- | --- | --- | --- | --- |
| C[C@@H]1O[C@@H](O[C@H]2[C@H](Oc3c4cc5cc3Oc3ccc(cc3Cl)[C@@H](O[C@H]3C[C@](C)(N)[C@@H](O)[C@H](C)O3)[C@@H]3NC(=O)[C@H](NC(=O)[C@@H]5NC(=O)[C@H](CC(N)=O)NC(=O)[C@H](NCCCCCCCCc5ccccc5)[C@H](O)c5ccc(c(Cl)c5)O4)c4ccc(O)c(c4)-c4c(O)cc(O)cc4[C@@H](C(=O)O)NC3=O)O[C@H](CO)[C@@H](O)[C@@H]2O)C[C@](C)(N)[C@H]1O [Example 19, N^1 -(8-PHENYL-n-OCTYL)DESLEUCYL-A82846B] | 45 | 254 | 2 | 1 | 1 | 2 | 2 | 4 | 0.5 | 0.5 |
| C[C@@H]1O[C@@H](O[C@@H]2c3ccc(c(Cl)c3)Oc3cc4cc(c3O[C@@H]3O[C@H](CO)[C@@H](O)[C@H](O)[C@H]3O[C@H]3C[C@](C)(NCc5ccc(-c6ccccc6)cc5)[C@@H](O)[C@H](C)O3)Oc3ccc(cc3Cl)[C@@H](O)[C@@H](NCCCCCCc3ccccc3)C(=O)N[C@@H](CC(N)=O)C(=O)N[C@H]4C(=O)N[C@H]3C(=O)N[C@@H]2C(=O)N[C@H](C(=O)O)c2cc(O)cc(O)c2-c2cc3ccc2O)C[C@](C)(N)[C@H]1O [Example 20, N^1 -(6-PHENYL-n-HEXYL)-N^DISACC -(p-PHENYLBENZYL)-DESLEUCYL-A82846B] | 64 | 11 | 4 | 4 | 4 | 1 | 1 | 1 | ≤ .06 | ≤ .06 |
| C[C@@H]1O[C@@H](O[C@H]2[C@H](Oc3c4cc5cc3Oc3ccc(cc3Cl)[C@@H](O[C@H]3C[C@](C)(N)[C@@H](O)[C@H](C)O3)[C@@H]3NC(=O)[C@H](NC(=O)[C@@H]5NC(=O)[C@H](CC(N)=O)NC(=O)[C@H](NCc5ccc(OCCCc6ccccc6)cc5)[C@H](O)c5ccc(c(Cl)c5)O4)c4ccc(O)c(c4)-c4c(O)cc(O)cc4[C@@H](C(=O)O)NC3=O)O[C@H](CO)[C@@H](O)[C@@H]2O)C[C@](C)(N)[C@H]1O [Example 21, N^1 -(p-(3-PHENYL-n-PROPOXY)BENZYL)DESLEUCYL-A82846B] | > 128 | 32 | 4 | 4 | 4 | 4 | 8 | 4 | ≤ .06 | ≤ .06 |
| C[C@@H]1O[C@@H](O[C@H]2[C@H](Oc3c4cc5cc3Oc3ccc(cc3Cl)[C@@H](O[C@H]3C[C@](C)(N)[C@@H](O)[C@H](C)O3)[C@@H]3NC(=O)[C@H](NC(=O)[C@@H]5NC(=O)[C@H](CC(N)=O)NC(=O)[C@H](NCc5ccc(-c6cc(C(F)(F)F)cc(C(F)(F)F)c6)cc5)[C@H](O)c5ccc(c(Cl)c5)O4)c4ccc(O)c(c4)-c4c(O)cc(O)cc4[C@@H](C(=O)O)NC3=O)O[C@H](CO)[C@@H](O)[C@@H]2O)C[C@](C)(N)[C@H]1O [Example 22, N^1 -(p-(3,5-BIS-(TRIFLUOROMETHYL)-PHENYL)BENZYL)-DESLEUCYL-A82846B] | 9.5 | 4.6 | 2 | 1 | 2 | 1 | 2 | 2 | ≤ .06 | ≤ .06 |
| CCCCCCCCOc1ccc(CN[C@H]2C(=O)N[C@@H](CC(N)=O)C(=O)N[C@H]3C(=O)N[C@H]4C(=O)N[C@H](C(=O)N[C@H](C(=O)O)c5cc(O)cc(O)c5-c5cc4ccc5O)[C@H](O[C@H]4C[C@](C)(N)[C@@H](O)[C@H](C)O4)c4ccc(c(Cl)c4)Oc4cc3cc(c4O[C@@H]3O[C@H](CO)[C@@H](O)[C@H](O)[C@H]3O[C@H]3C[C@](C)(N)[C@@H](O)[C@H](C)O3)Oc3ccc(cc3Cl)[C@H]2O)cc1 [Example 23, N^1 -(p-(n-OCTYLOXY)-BENZYL)DESLEUCYL-A82846B] | 11 | 9.2 | 8 | 4 | 4 | 4 | 8 | 4 | 0.25 | 1 |
| CSc1ccc(CN[C@H]2C(=O)N[C@@H](CC(N)=O)C(=O)N[C@H]3C(=O)N[C@H]4C(=O)N[C@H](C(=O)N[C@H](C(=O)O)c5cc(O)cc(O)c5-c5cc4ccc5O)[C@H](O[C@H]4C[C@](C)(N)[C@@H](O)[C@H](C)O4)c4ccc(c(Cl)c4)Oc4cc3cc(c4O[C@@H]3O[C@H](CO)[C@@H](O)[C@H](O)[C@H]3O[C@H]3C[C@](C)(N)[C@@H](O)[C@H](C)O3)Oc3ccc(cc3Cl)[C@H]2O)cc1 [Example 24, N^1 -(p-(METHYLTHIO)-BENZYL)DESLEUCYL-A82846B] | > 128 | > 128 | 32 | 16 | 32 | 32 | 64 | 32 | 8 | 8 |
| CSc1ccc(CN[C@H]2C(=O)N[C@@H](CC(N)=O)C(=O)N[C@H]3C(=O)N[C@H]4C(=O)N[C@H](C(=O)N[C@H](C(=O)O)c5cc(O)cc(O)c5-c5cc4ccc5O)[C@H](O[C@H]4C[C@](C)(N)[C@@H](O)[C@H](C)O4)c4ccc(c(Cl)c4)Oc4cc3cc(c4O[C@@H]3O[C@H](CO)[C@@H](O)[C@H](O)[C@H]3O[C@H]3C[C@](C)(NCc4ccc(SC)cc4)[C@@H](O)[C@H](C)O3)Oc3ccc(cc3Cl)[C@H]2O)cc1 [Example 25, N^1,N^DISACC -BIS(p-(METHYLTHIO)-BENZYL)DESLEUCYL-A82846B] | 6.7 | 2.6 | 8 | 4 | 4 | 4 | 8 | 8 | 4 | 1 |
| C[C@@H]1O[C@@H](O[C@@H]2c3ccc(c(Cl)c3)Oc3cc4cc(c3O[C@@H]3O[C@H](CO)[C@@H](O)[C@H](O)[C@H]3O[C@H]3C[C@](C)(NCc5ccc(-c6ccccc6)cc5)[C@@H](O)[C@H](C)O3)Oc3ccc(cc3Cl)[C@@H](O)[C@@H](NCc3ccc(-c5cc(C(F)(F)F)cc(C(F)(F)F)c5)cc3)C(=O)N[C@@H](CC(N)=O)C(=O)N[C@H]4C(=O)N[C@H]3C(=O)N[C@@H]2C(=O)N[C@H](C(=O)O)c2cc(O)cc(O)c2-c2cc3ccc2O)C[C@](C)(N)[C@H]1O [Example 26, N^1 -(p-(3,5-BIS-(TRIFLUOROMETHYL)-PHENYL)BENZYL)-N^DISACC -(p-PHENYLBENZYL)-DESLEUCYL-A82846B] | 5.7 | 6.1 | 8 | 4 | 4 | 2 | 4 | 4 | 0.25 | ≤ .06 |
| C[C@@H]1O[C@@H](O[C@@H]2c3ccc(c(Cl)c3)Oc3cc4cc(c3O[C@@H]3O[C@H](CO)[C@@H](O)[C@H](O)[C@H]3O[C@H]3C[C@](C)(NCc5ccc(-c6ccc(Cl)cc6)cc5)[C@@H](O)[C@H](C)O3)Oc3ccc(cc3Cl)[C@@H](O)[C@@H](NCc3ccc(-c5cc(C(F)(F)F)cc(C(F)(F)F)c5)cc3)C(=O)N[C@@H](CC(N)=O)C(=O)N[C@H]4C(=O)N[C@H]3C(=O)N[C@@H]2C(=O)N[C@H](C(=O)O)c2cc(O)cc(O)c2-c2cc3ccc2O)C[C@](C)(N)[C@H]1O [Example 27, N^1 -(p-(3,5-BIS-(TRIFLUOROMETHYL)-PHENYL)BENZYL)-N^DISACC -(p-(p-CHLOROPHENYL)BENZYL-DESLEUCYL-A82846B] | 9.5 | 6.1 | 64 | 32 | 32 | 8 | 32 | 8 | 64 | 32 |
